Results published in the kinase profiling compilation of Christmann-Franck et al. (2016).

The compounds below were run against CDK4 CCND3 (human) (UniProt P30281+P11802) (assay: radiometric filter-binding kinase assay, Kinase HotSpot). Conditions: compound 0.5 µM.
CDK4 CCND3 (human), sequence (P11802 whole entry, looked up): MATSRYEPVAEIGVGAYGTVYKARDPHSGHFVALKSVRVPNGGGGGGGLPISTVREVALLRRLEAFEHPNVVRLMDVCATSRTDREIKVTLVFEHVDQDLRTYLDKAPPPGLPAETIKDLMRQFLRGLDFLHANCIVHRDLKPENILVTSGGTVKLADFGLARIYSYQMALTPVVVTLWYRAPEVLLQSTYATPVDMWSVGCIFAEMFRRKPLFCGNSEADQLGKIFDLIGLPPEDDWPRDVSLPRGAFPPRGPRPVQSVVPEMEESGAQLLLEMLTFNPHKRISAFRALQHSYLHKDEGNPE
CDK4 CCND3 (human), sequence (P30281 whole entry, looked up): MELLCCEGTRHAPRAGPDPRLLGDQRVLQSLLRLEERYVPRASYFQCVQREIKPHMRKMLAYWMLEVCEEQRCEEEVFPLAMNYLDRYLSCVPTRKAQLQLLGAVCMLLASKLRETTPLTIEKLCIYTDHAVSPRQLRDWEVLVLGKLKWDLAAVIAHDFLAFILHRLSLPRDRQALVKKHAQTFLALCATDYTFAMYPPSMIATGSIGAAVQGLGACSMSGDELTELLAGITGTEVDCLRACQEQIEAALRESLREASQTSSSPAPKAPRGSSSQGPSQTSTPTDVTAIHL
In the case of `O=c1[nH]c2ccccc2n1C1CCN(Cc2ccc(-c3nc4cc5[nH]cnc5cc4nc3-c3ccccc3)cc2)CC1`, the residual activity was 99.7%.

Same assay, conditions: compound 0.5 µM; ATP 10 µM
In the case of `COc1cc2c(cc1OC)-c1[nH]nc(Nc3cccc(F)c3)c1C2`, the residual activity was 95.4%.
Work on `Cn1cc(/C=C2\C(=O)Nc3ccc(S(N)(=O)=O)cc32)c2ccccc21` yielded a residual activity of 94%.
Compound `COc1cccc(-c2cc(=O)c3ccccc3o2)c1N` has a residual activity of 101%.

These compounds were tested against CSNK2A2 (human) (UniProt P19784) in the same assay as above. Conditions: compound 0.5 µM; ATP 10 µM.
CSNK2A2 (human), sequence (P19784 whole entry, looked up): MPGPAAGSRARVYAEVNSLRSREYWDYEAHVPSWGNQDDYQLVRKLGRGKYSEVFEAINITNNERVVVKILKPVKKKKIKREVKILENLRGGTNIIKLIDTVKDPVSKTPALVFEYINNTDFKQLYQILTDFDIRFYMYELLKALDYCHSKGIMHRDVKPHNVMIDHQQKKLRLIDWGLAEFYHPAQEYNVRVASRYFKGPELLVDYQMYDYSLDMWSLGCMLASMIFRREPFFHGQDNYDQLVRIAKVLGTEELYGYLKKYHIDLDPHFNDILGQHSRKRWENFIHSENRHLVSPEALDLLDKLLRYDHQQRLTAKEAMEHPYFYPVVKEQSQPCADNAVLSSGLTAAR
`O=c1[nH]c2ccccc2n1C1CCN(Cc2ccc(-c3nc4cc5[nH]cnc5cc4nc3-c3ccccc3)cc2)CC1` was tested, and the residual activity was 101%.
Compound `COc1cc2c(cc1OC)-c1[nH]nc(Nc3cccc(F)c3)c1C2` has a residual activity of 105%.
With `Cn1cc(/C=C2\C(=O)Nc3ccc(S(N)(=O)=O)cc32)c2ccccc21` the residual activity was 66%.
With `COc1cccc(-c2cc(=O)c3ccccc3o2)c1N` the residual activity was 97.7%.

The compounds below were run on SGK1 (human), O00141 [S422D] in the same assay as above. Conditions: compound 0.5 µM; ATP 10 µM.
SGK1 (human), O00141 [S422D], sequence (O00141 whole entry S422D, looked up): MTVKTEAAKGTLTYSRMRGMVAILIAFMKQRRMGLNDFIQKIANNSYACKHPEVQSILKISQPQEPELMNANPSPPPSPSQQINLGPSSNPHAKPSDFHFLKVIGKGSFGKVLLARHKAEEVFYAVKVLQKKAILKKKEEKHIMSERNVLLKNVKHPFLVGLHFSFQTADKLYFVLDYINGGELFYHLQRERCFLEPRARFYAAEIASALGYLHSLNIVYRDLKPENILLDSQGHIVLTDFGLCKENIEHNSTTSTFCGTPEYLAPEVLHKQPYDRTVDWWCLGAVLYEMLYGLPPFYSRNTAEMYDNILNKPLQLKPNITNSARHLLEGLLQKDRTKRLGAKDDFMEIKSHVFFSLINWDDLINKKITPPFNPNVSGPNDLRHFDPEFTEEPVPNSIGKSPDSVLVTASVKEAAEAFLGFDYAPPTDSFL
In the case of `O=c1[nH]c2ccccc2n1C1CCN(Cc2ccc(-c3nc4cc5[nH]cnc5cc4nc3-c3ccccc3)cc2)CC1`, the residual activity was 102%.
`COc1cc2c(cc1OC)-c1[nH]nc(Nc3cccc(F)c3)c1C2` gave a residual activity of 99.8%.
With `Cn1cc(/C=C2\C(=O)Nc3ccc(S(N)(=O)=O)cc32)c2ccccc21` the residual activity was 71.8%.
Compound `COc1cccc(-c2cc(=O)c3ccccc3o2)c1N` has a residual activity of 102%.

What follows are compounds tested against NTRK2 (human) (UniProt Q16620) in the same assay as above. Conditions: compound 0.5 µM; ATP 10 µM.
With `O=c1[nH]c2ccccc2n1C1CCN(Cc2ccc(-c3nc4cc5[nH]cnc5cc4nc3-c3ccccc3)cc2)CC1` the residual activity was 99.4%.
For `COc1cc2c(cc1OC)-c1[nH]nc(Nc3cccc(F)c3)c1C2`, the residual activity was 102%.
Work on `Cn1cc(/C=C2\C(=O)Nc3ccc(S(N)(=O)=O)cc32)c2ccccc21` yielded a residual activity of 4.83%.
In the case of `COc1cccc(-c2cc(=O)c3ccccc3o2)c1N`, the residual activity was 65.4%.

These compounds were tested against RPS6KA6 KD1 KD2 (human) (UniProt Q9UK32) in the same assay as above. Conditions: compound 0.5 µM; ATP 10 µM.
RPS6KA6 KD1 KD2 (human), sequence (Q9UK32 whole entry, looked up): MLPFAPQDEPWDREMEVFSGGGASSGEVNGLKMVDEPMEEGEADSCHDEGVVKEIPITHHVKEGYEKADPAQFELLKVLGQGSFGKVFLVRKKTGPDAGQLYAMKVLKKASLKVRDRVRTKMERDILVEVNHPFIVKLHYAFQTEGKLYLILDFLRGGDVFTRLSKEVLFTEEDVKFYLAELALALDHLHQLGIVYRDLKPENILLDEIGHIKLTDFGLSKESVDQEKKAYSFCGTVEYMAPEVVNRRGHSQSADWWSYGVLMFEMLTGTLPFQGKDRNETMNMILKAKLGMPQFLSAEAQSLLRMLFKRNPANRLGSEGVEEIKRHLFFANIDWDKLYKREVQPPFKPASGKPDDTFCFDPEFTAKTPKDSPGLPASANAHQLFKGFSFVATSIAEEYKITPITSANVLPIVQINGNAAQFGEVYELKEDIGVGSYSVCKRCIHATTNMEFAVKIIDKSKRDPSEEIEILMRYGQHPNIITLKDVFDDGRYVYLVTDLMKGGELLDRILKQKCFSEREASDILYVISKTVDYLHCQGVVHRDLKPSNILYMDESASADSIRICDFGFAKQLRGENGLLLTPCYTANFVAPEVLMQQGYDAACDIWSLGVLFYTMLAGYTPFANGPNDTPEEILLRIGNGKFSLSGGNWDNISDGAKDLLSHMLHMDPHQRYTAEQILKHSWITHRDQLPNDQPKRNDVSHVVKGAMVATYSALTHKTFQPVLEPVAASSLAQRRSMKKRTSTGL
`O=c1[nH]c2ccccc2n1C1CCN(Cc2ccc(-c3nc4cc5[nH]cnc5cc4nc3-c3ccccc3)cc2)CC1` was tested, and the residual activity was 109%.
`COc1cc2c(cc1OC)-c1[nH]nc(Nc3cccc(F)c3)c1C2` showed a residual activity of 93.6%.
Work on `Cn1cc(/C=C2\C(=O)Nc3ccc(S(N)(=O)=O)cc32)c2ccccc21` yielded a residual activity of 6.55%.
With `COc1cccc(-c2cc(=O)c3ccccc3o2)c1N` the residual activity was 95.2%.

What follows are compounds tested against TEC (human) (UniProt P42680) in the same assay as above. Conditions: compound 0.5 µM; ATP 10 µM.
TEC (human), sequence (P42680 whole entry, looked up): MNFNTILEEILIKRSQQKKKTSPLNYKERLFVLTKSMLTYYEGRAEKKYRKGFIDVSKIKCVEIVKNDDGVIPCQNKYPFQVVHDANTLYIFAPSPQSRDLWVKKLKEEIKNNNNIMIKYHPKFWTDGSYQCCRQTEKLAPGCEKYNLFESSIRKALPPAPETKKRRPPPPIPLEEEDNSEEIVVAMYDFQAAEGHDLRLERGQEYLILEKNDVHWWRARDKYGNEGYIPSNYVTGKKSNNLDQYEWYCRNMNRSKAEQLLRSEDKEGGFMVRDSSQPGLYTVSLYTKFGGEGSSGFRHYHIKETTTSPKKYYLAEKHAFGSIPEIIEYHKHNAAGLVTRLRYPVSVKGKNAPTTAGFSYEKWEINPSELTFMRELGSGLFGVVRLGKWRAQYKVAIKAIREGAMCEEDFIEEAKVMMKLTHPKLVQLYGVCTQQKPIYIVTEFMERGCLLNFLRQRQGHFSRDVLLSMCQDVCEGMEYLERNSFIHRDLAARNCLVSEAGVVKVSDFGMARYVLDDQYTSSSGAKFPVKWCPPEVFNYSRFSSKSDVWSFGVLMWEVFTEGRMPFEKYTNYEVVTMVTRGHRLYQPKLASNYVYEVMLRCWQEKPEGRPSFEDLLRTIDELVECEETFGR
`O=c1[nH]c2ccccc2n1C1CCN(Cc2ccc(-c3nc4cc5[nH]cnc5cc4nc3-c3ccccc3)cc2)CC1` gave a residual activity of 162%.
`COc1cc2c(cc1OC)-c1[nH]nc(Nc3cccc(F)c3)c1C2` showed a residual activity of 95%.
Work on `Cn1cc(/C=C2\C(=O)Nc3ccc(S(N)(=O)=O)cc32)c2ccccc21` yielded a residual activity of 157%.
For `COc1cccc(-c2cc(=O)c3ccccc3o2)c1N`, the residual activity was 99.2%.

These compounds were tested against SRC (human) (UniProt P12931) in the same assay as above. Conditions: compound 0.5 µM; ATP 10 µM.
Work on `O=c1[nH]c2ccccc2n1C1CCN(Cc2ccc(-c3nc4cc5[nH]cnc5cc4nc3-c3ccccc3)cc2)CC1` yielded a residual activity of 103%.
`COc1cc2c(cc1OC)-c1[nH]nc(Nc3cccc(F)c3)c1C2` showed a residual activity of 63.4%.
`Cn1cc(/C=C2\C(=O)Nc3ccc(S(N)(=O)=O)cc32)c2ccccc21` showed a residual activity of 45.1%.
For `COc1cccc(-c2cc(=O)c3ccccc3o2)c1N`, the residual activity was 92.6%.

These compounds were tested against WEE1 (human) (UniProt P30291) in the same assay as above. Conditions: compound 0.5 µM; ATP 10 µM.
For `O=c1[nH]c2ccccc2n1C1CCN(Cc2ccc(-c3nc4cc5[nH]cnc5cc4nc3-c3ccccc3)cc2)CC1`, the residual activity was 93.9%.
`COc1cc2c(cc1OC)-c1[nH]nc(Nc3cccc(F)c3)c1C2` was tested, and the residual activity was 93%.
In the case of `Cn1cc(/C=C2\C(=O)Nc3ccc(S(N)(=O)=O)cc32)c2ccccc21`, the residual activity was 82.3%.
`COc1cccc(-c2cc(=O)c3ccccc3o2)c1N` was tested, and the residual activity was 83%.

These compounds were tested against CAMK1D (human) (UniProt Q8IU85) in the same assay as above. Conditions: compound 0.5 µM; ATP 10 µM.
CAMK1D (human), sequence (Q8IU85 whole entry, looked up): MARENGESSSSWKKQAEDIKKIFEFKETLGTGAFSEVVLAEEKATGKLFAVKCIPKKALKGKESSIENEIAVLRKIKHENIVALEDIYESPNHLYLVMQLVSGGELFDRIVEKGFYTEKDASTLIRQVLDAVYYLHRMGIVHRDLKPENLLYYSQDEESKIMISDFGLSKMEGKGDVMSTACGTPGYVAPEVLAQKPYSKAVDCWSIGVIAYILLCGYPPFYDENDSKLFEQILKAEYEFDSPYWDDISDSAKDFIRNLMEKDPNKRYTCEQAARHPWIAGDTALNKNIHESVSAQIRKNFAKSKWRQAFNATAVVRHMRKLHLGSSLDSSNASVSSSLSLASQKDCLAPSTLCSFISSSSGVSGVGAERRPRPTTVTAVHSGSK
In the case of `O=c1[nH]c2ccccc2n1C1CCN(Cc2ccc(-c3nc4cc5[nH]cnc5cc4nc3-c3ccccc3)cc2)CC1`, the residual activity was 107%.
For `COc1cc2c(cc1OC)-c1[nH]nc(Nc3cccc(F)c3)c1C2`, the residual activity was 89.8%.
`Cn1cc(/C=C2\C(=O)Nc3ccc(S(N)(=O)=O)cc32)c2ccccc21` was tested, and the residual activity was 69.6%.
Compound `COc1cccc(-c2cc(=O)c3ccccc3o2)c1N` has a residual activity of 65.3%.

The compounds below were run against WNK3 (human) (UniProt Q9BYP7) in the same assay as above. Conditions: compound 0.5 µM; ATP 10 µM.
`O=c1[nH]c2ccccc2n1C1CCN(Cc2ccc(-c3nc4cc5[nH]cnc5cc4nc3-c3ccccc3)cc2)CC1` was tested, and the residual activity was 106%.
`COc1cc2c(cc1OC)-c1[nH]nc(Nc3cccc(F)c3)c1C2` was tested, and the residual activity was 104%.
`Cn1cc(/C=C2\C(=O)Nc3ccc(S(N)(=O)=O)cc32)c2ccccc21` gave a residual activity of 99%.
For `COc1cccc(-c2cc(=O)c3ccccc3o2)c1N`, the residual activity was 96.3%.

These compounds were tested against MAPK12 (human) (UniProt P53778) in the same assay as above. Conditions: compound 0.5 µM; ATP 10 µM.
MAPK12 (human), sequence (P53778 whole entry, looked up): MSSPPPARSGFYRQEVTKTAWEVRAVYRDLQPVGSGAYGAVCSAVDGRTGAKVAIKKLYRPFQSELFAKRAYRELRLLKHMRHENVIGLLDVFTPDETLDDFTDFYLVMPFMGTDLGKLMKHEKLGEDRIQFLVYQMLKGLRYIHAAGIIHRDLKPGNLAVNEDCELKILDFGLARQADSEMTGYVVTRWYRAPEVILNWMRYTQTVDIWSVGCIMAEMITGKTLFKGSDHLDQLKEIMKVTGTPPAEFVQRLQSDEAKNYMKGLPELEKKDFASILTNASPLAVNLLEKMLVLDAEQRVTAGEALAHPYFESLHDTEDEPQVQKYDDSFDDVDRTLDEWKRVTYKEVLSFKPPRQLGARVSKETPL
`O=c1[nH]c2ccccc2n1C1CCN(Cc2ccc(-c3nc4cc5[nH]cnc5cc4nc3-c3ccccc3)cc2)CC1` gave a residual activity of 93.1%.
In the case of `COc1cc2c(cc1OC)-c1[nH]nc(Nc3cccc(F)c3)c1C2`, the residual activity was 101%.
Compound `Cn1cc(/C=C2\C(=O)Nc3ccc(S(N)(=O)=O)cc32)c2ccccc21` has a residual activity of 101%.
Work on `COc1cccc(-c2cc(=O)c3ccccc3o2)c1N` yielded a residual activity of 95.5%.

Each compound was assayed against STK16 (human) (UniProt O75716) in the same assay as above. Conditions: compound 0.5 µM; ATP 10 µM.
STK16 (human), sequence (O75716 whole entry, looked up): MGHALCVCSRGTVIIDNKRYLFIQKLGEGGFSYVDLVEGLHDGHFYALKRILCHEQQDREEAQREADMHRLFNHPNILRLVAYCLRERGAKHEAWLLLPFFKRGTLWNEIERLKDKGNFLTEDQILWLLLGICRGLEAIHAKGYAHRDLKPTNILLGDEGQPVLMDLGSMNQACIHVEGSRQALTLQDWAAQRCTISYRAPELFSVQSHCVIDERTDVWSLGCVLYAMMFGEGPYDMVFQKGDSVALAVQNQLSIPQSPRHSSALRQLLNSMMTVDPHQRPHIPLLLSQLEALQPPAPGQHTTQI
For `O=c1[nH]c2ccccc2n1C1CCN(Cc2ccc(-c3nc4cc5[nH]cnc5cc4nc3-c3ccccc3)cc2)CC1`, the residual activity was 99.5%.
`COc1cc2c(cc1OC)-c1[nH]nc(Nc3cccc(F)c3)c1C2` was tested, and the residual activity was 96.8%.
For `Cn1cc(/C=C2\C(=O)Nc3ccc(S(N)(=O)=O)cc32)c2ccccc21`, the residual activity was 78.7%.
With `COc1cccc(-c2cc(=O)c3ccccc3o2)c1N` the residual activity was 95.4%.

What follows are compounds tested against AKT3 (human) (UniProt Q9Y243) in the same assay as above. Conditions: compound 0.5 µM; ATP 10 µM.
In the case of `O=c1[nH]c2ccccc2n1C1CCN(Cc2ccc(-c3nc4cc5[nH]cnc5cc4nc3-c3ccccc3)cc2)CC1`, the residual activity was 103%.
`COc1cc2c(cc1OC)-c1[nH]nc(Nc3cccc(F)c3)c1C2` showed a residual activity of 96.1%.
With `Cn1cc(/C=C2\C(=O)Nc3ccc(S(N)(=O)=O)cc32)c2ccccc21` the residual activity was 97.4%.
With `COc1cccc(-c2cc(=O)c3ccccc3o2)c1N` the residual activity was 101%.

The compounds below were run against ADRBK2 (human) (UniProt P35626) in the same assay as above. Conditions: compound 0.5 µM; ATP 10 µM.
ADRBK2 (human), sequence (P35626 whole entry, looked up): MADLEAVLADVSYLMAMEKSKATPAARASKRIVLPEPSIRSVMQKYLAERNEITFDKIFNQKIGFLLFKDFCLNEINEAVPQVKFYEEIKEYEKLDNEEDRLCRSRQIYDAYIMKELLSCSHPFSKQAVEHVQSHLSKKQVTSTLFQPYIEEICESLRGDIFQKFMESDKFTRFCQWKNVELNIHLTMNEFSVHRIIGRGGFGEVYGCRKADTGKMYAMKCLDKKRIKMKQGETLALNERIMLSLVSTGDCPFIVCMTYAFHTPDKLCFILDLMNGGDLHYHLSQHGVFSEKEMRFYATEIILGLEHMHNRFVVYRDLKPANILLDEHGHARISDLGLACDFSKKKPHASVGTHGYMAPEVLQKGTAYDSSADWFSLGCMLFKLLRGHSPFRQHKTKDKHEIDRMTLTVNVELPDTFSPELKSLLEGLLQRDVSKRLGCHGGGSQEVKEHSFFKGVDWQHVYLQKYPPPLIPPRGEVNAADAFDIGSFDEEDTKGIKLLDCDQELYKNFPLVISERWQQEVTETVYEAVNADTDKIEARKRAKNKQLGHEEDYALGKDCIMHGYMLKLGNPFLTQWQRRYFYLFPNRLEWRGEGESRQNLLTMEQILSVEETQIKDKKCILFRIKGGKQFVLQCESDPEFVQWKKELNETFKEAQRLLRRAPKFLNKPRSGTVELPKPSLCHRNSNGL
`O=c1[nH]c2ccccc2n1C1CCN(Cc2ccc(-c3nc4cc5[nH]cnc5cc4nc3-c3ccccc3)cc2)CC1` showed a residual activity of 87.3%.
Compound `COc1cc2c(cc1OC)-c1[nH]nc(Nc3cccc(F)c3)c1C2` has a residual activity of 98.4%.
`Cn1cc(/C=C2\C(=O)Nc3ccc(S(N)(=O)=O)cc32)c2ccccc21` showed a residual activity of 111%.
Work on `COc1cccc(-c2cc(=O)c3ccccc3o2)c1N` yielded a residual activity of 94.7%.

The compounds below were run against MARK4 (human) (UniProt Q96L34) in the same assay as above. Conditions: compound 0.5 µM; ATP 10 µM.
`O=c1[nH]c2ccccc2n1C1CCN(Cc2ccc(-c3nc4cc5[nH]cnc5cc4nc3-c3ccccc3)cc2)CC1` showed a residual activity of 102%.
In the case of `COc1cc2c(cc1OC)-c1[nH]nc(Nc3cccc(F)c3)c1C2`, the residual activity was 70.6%.
`Cn1cc(/C=C2\C(=O)Nc3ccc(S(N)(=O)=O)cc32)c2ccccc21` showed a residual activity of 40.6%.
In the case of `COc1cccc(-c2cc(=O)c3ccccc3o2)c1N`, the residual activity was 77.8%.

Each compound was assayed against DYRK1A (human) (UniProt Q13627) in the same assay as above. Conditions: compound 0.5 µM; ATP 10 µM.
`O=c1[nH]c2ccccc2n1C1CCN(Cc2ccc(-c3nc4cc5[nH]cnc5cc4nc3-c3ccccc3)cc2)CC1` showed a residual activity of 101%.
`COc1cc2c(cc1OC)-c1[nH]nc(Nc3cccc(F)c3)c1C2` gave a residual activity of 90.3%.
Work on `Cn1cc(/C=C2\C(=O)Nc3ccc(S(N)(=O)=O)cc32)c2ccccc21` yielded a residual activity of 92.2%.
`COc1cccc(-c2cc(=O)c3ccccc3o2)c1N` gave a residual activity of 94%.

The compounds below were run against STK11 (human) (UniProt Q15831) in the same assay as above. Conditions: compound 0.5 µM; ATP 10 µM.
Work on `O=c1[nH]c2ccccc2n1C1CCN(Cc2ccc(-c3nc4cc5[nH]cnc5cc4nc3-c3ccccc3)cc2)CC1` yielded a residual activity of 95.6%.
`COc1cc2c(cc1OC)-c1[nH]nc(Nc3cccc(F)c3)c1C2` gave a residual activity of 104%.
`Cn1cc(/C=C2\C(=O)Nc3ccc(S(N)(=O)=O)cc32)c2ccccc21` was tested, and the residual activity was 68.2%.
For `COc1cccc(-c2cc(=O)c3ccccc3o2)c1N`, the residual activity was 101%.

The compounds below were run against ABL2 (human) (UniProt P42684) in the same assay as above. Conditions: compound 0.5 µM; ATP 10 µM.
Compound `O=c1[nH]c2ccccc2n1C1CCN(Cc2ccc(-c3nc4cc5[nH]cnc5cc4nc3-c3ccccc3)cc2)CC1` has a residual activity of 96.8%.
Work on `COc1cc2c(cc1OC)-c1[nH]nc(Nc3cccc(F)c3)c1C2` yielded a residual activity of 21.4%.
`Cn1cc(/C=C2\C(=O)Nc3ccc(S(N)(=O)=O)cc32)c2ccccc21` gave a residual activity of 54.2%.
Work on `COc1cccc(-c2cc(=O)c3ccccc3o2)c1N` yielded a residual activity of 96.8%.

These compounds were tested against DYRK3 (human) (UniProt O43781) in the same assay as above. Conditions: compound 0.5 µM; ATP 10 µM.
Work on `O=c1[nH]c2ccccc2n1C1CCN(Cc2ccc(-c3nc4cc5[nH]cnc5cc4nc3-c3ccccc3)cc2)CC1` yielded a residual activity of 101%.
With `COc1cc2c(cc1OC)-c1[nH]nc(Nc3cccc(F)c3)c1C2` the residual activity was 84.4%.
Work on `Cn1cc(/C=C2\C(=O)Nc3ccc(S(N)(=O)=O)cc32)c2ccccc21` yielded a residual activity of 89.7%.
`COc1cccc(-c2cc(=O)c3ccccc3o2)c1N` was tested, and the residual activity was 90.3%.

The compounds below were run against MAPK11 (human) (UniProt Q15759) in the same assay as above. Conditions: compound 0.5 µM; ATP 10 µM.
MAPK11 (human), sequence (Q15759 whole entry, looked up): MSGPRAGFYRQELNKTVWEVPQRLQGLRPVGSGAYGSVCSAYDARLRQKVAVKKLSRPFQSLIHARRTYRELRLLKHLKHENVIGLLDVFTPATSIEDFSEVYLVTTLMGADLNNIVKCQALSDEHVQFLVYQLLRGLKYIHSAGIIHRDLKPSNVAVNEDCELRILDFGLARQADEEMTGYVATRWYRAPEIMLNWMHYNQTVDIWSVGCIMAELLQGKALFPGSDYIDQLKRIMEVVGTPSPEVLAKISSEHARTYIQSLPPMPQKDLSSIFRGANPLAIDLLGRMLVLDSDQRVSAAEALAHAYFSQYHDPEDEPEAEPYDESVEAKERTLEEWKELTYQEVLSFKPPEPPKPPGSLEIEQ
`O=c1[nH]c2ccccc2n1C1CCN(Cc2ccc(-c3nc4cc5[nH]cnc5cc4nc3-c3ccccc3)cc2)CC1` showed a residual activity of 102%.
`COc1cc2c(cc1OC)-c1[nH]nc(Nc3cccc(F)c3)c1C2` showed a residual activity of 83%.
`Cn1cc(/C=C2\C(=O)Nc3ccc(S(N)(=O)=O)cc32)c2ccccc21` showed a residual activity of 93.8%.
In the case of `COc1cccc(-c2cc(=O)c3ccccc3o2)c1N`, the residual activity was 108%.

What follows are compounds tested against NTRK1 (human) (UniProt P04629) in the same assay as above. Conditions: compound 0.5 µM; ATP 10 µM.
In the case of `O=c1[nH]c2ccccc2n1C1CCN(Cc2ccc(-c3nc4cc5[nH]cnc5cc4nc3-c3ccccc3)cc2)CC1`, the residual activity was 99.4%.
Compound `COc1cc2c(cc1OC)-c1[nH]nc(Nc3cccc(F)c3)c1C2` has a residual activity of 98.8%.
Work on `Cn1cc(/C=C2\C(=O)Nc3ccc(S(N)(=O)=O)cc32)c2ccccc21` yielded a residual activity of 6.15%.
For `COc1cccc(-c2cc(=O)c3ccccc3o2)c1N`, the residual activity was 99.9%.
